Data as given in DBAASP.
≈ marks a conversion by molar mass, not a printed value. Where “and” joins values, the source holds several entries; their conditions need not be identical. Equal entries are not always repeated. Each block holds one compound with its values, some of them ahead of it.

Experiments:
Assay in all cases: ≥ marks a high value that may be exact or a test limit, other limits are often not marked, values filed in µg/mL are converted to µM
[1] = tested on: Escherichia coli KpC+001812446
[2] = tested on: Klebsiella pneumoniae KpC+001825971
[3] = tested on: Klebsiella pneumoniae ATCC 13883
[4] = tested on: Escherichia coli ATCC 25922
[5] = tested on: Staphylococcus aureus ATCC 25923
[6] = tested on: Candida albicans NCTC 3179
Citrobacter sp. = tested on: Citrobacter sp.
Enterobacter cloacae = tested on: Enterobacter cloacae
Klebsiella pneumoniae = tested on: Klebsiella pneumoniae
Streptococcus pneumoniae = tested on: Streptococcus pneumoniae
[7] = tested on: Acinetobacter baumannii ATCC 15308
[8] = tested on: Pseudomonas aeruginosa ATCC 15442
Staphylococcus aureus = tested on: Staphylococcus aureus
Escherichia coli BL21 = tested on: Escherichia coli BL21
[9] = tested on: Xanthomonas axonopodis pv. phaseoli ATCC 9563
[10] = tested on: Streptococcus pyogenes GAS M1T1
Pseudomonas syringae = tested on: Pseudomonas syringae
[11] = tested on: Pseudomonas aeruginosa PAO1
[12] = tested on: Candida albicans ATCC 10231
[13] = tested on: Staphylococcus aureus ATCC 700699
[14] = tested on: Escherichia coli ATCC 9637
[15] = tested on: Pseudomonas aeruginosa ATCC BAA-427
[16] = tested on: Bacillus subtilis ATCC 6633
[17] = tested on: Staphylococcus aureus ATCC 700698
[18] = tested on: Klebsiella pneumoniae ATCC 27736
[19] = tested on: Staphylococcus aureus ATCC 29213
[20] = tested on: Candida parapsilosis ATCC 22019
Cryptococcus neoformans = tested on: Cryptococcus neoformans
[21] = tested on: Staphylococcus aureus ATCC 33592
[22] = tested on: Staphylococcus aureus ATCC BAA-44

Structure (SMILES): CC[C@H](C)[C@H](NC(=O)[C@H](CC(C)C)NC(=O)CNC(=O)CNC(=O)[C@H](CC(C)C)NC(=O)[C@@H](N)Cc1ccccc1)C(=O)N[C@@H](CCCCN)C(=O)N[C@@H](Cc1c[nH]c2ccccc12)C(=O)N[C@@H](CCCCN)C(=O)N[C@@H](Cc1c[nH]c2ccccc12)C(=O)N1CCC[C@H]1C(=O)N[C@@H](Cc1c[nH]c2ccccc12)C(=O)N[C@@H](Cc1c[nH]c2ccccc12)C(=O)N1CCC[C@H]1C(=O)N[C@@H](Cc1c[nH]c2ccccc12)C(=O)N[C@@H](CCCN=C(N)N)C(=O)N[C@@H](CCCN=C(N)N)C(N)=O [FLGGLIKWKWPWWPWRR]
MIC (Citrobacter sp.): ≥ 108 µM | MIC [4]: 3.38 µM (≈ 7.81 µg/mL) | MIC (Enterobacter cloacae): ≥ 108 µM | MIC (Klebsiella pneumoniae): > 108 µM | MIC (Streptococcus pneumoniae): 3.38 µM (≈ 7.81 µg/mL) | MIC [7]: 13.5 µM (≈ 31.2 µg/mL) | MIC [5]: 3.38 µM (≈ 7.81 µg/mL) | MIC [8]: 13.5 µM (≈ 31.2 µg/mL) | MIC (Staphylococcus aureus): 3.38 µM (≈ 7.81 µg/mL)

Structure (SMILES): CC[C@H](C)[C@H](NC(=O)[C@H](CCCCN)NC(=O)[C@H](CC(N)=O)NC(=O)[C@H](CCCCN)NC(=O)[C@H](CC(C)C)NC(=O)[C@H](Cc1ccc(O)cc1)NC(=O)[C@H](CCC(N)=O)NC(=O)[C@H](CCCN=C(N)N)NC(=O)[C@@H](NC(=O)[C@@H](NC(=O)[C@H](CCCCN)NC(=O)[C@H](CCCCN)NC(=O)[C@H](Cc1c[nH]c2ccccc12)NC(=O)[C@H](C)N)[C@@H](C)O)[C@@H](C)CC)C(=O)N[C@@H](CCCCN)C(=O)N[C@@H](CCCCN)C(=O)N[C@@H](CCCCN)C(=O)N[C@@H](Cc1c[nH]c2ccccc12)C(=O)N[C@@H](CCCN=C(N)N)C(=O)N[C@@H](CCCCN)C(=O)N[C@@H](C)C(=O)N[C@H](C(=O)N[C@H](C(=O)N[C@@H](C)C(=O)N[C@@H](Cc1c[nH]c2ccccc12)C(=O)O)[C@@H](C)CC)C(C)C [AWKKTIRQYLKNKIKKKWRKAVIAW]
MIC (Escherichia coli BL21): 4 µM (≈ 12.7 µg/mL) | MIC [9]: 1 µM (≈ 3.19 µg/mL) | MIC [10]: 8 µM (≈ 25.5 µg/mL) | MIC (Pseudomonas syringae): 8 µM (≈ 25.5 µg/mL)

Structure (SMILES): CC[C@H](C)[C@H](NC(=O)[C@H](CCSC)NC(=O)[C@H](C)NC(=O)[C@@H]1CCCN1C(=O)[C@@H](NC(=O)[C@@H]1CCCN1C(=O)[C@H](CCCCN)NC(=O)[C@@H](NC(=O)[C@H](CC(C)C)NC(=O)CNC(=O)CNC(=O)[C@H](CC(C)C)NC(=O)[C@@H](N)Cc1ccccc1)[C@@H](C)CC)C(C)C)C(=O)N[C@H]1CSSC[C@@H](C(=O)O)NC(=O)[C@H](CCCCN)NC(=O)[C@H](CCCCN)NC(=O)[C@H](CCCN=C(N)N)NC(=O)[C@H](C(C)C)NC(=O)[C@H](C)NC1=O [FLGGLIKPVPAMICAVRKKC]
MIC (Citrobacter sp.): ≥ 117 µM | MIC [4]: > 117 µM | MIC (Enterobacter cloacae): ≥ 117 µM | MIC (Klebsiella pneumoniae): > 117 µM | MIC (Streptococcus pneumoniae): ≥ 117 µM | MIC [7]: ≥ 117 µM | MIC [5]: > 117 µM | MIC [8]: ≥ 117 µM | MIC (Staphylococcus aureus): > 117 µM

The remaining lines, values ahead:

MIC [1]: 8 µM (≈ 16.2 µg/mL) | MIC [2]: 8 µM (≈ 16.2 µg/mL) | MIC [3]: ≥ 32 µM | MIC [4]: 4 µM (≈ 8.09 µg/mL)
Structure (SMILES): CC[C@H](C)[C@H](NC(=O)[C@H](CCCCN)NC(=O)[C@H](CCCCN)NC(=O)[C@H](Cc1ccccc1)NC(=O)[C@H](CC(C)C)NC(=O)[C@H](CCCCN)NC(=O)[C@H](Cc1c[nH]c2ccccc12)NC(=O)[C@H](CCCCN)NC(=O)[C@H](Cc1cnc[nH]1)NC(=O)CNC(=O)CN)C(=O)NCC(=O)N[C@@H](C)C(=O)N[C@H](C(=O)N[C@@H](CC(C)C)C(=O)N[C@@H](CCCCN)C(=O)N[C@H](C(=O)N[C@@H](CC(C)C)C(=O)O)C(C)C)C(C)C [GGHKWKLFKKIGAVLKVL]

MIC [4]: 3.54 µM (≈ 9.8 µg/mL) | MIC [5]: 4.7 µM (≈ 13 µg/mL) | MIC [6]: 30.3 µM (≈ 84 µg/mL)
Structure (SMILES): CC[C@H](C)[C@H](NC(=O)[C@H](CCCCN)NC(=O)[C@@H](NC(=O)[C@@H](NC(=O)[C@H](CO)NC(=O)[C@H](CC(N)=O)NC(=O)[C@@H](NC(=O)[C@H](CC(N)=O)NC(=O)[C@@H](N)CCCCN)C(C)C)[C@@H](C)CC)C(C)C)C(=O)N[C@@H](CCC(N)=O)C(=O)N[C@@H](C)C(=O)N[C@@H](Cc1ccccc1)C(=O)N[C@@H](Cc1ccccc1)C(=O)N[C@@H](CCCN=C(N)N)C(=O)N[C@@H](C)C(=O)N[C@@H](CCCN=C(N)N)C(=O)N[C@@H](CCCCN)C(=O)N[C@@H](C)C(=O)N[C@@H](CCC(N)=O)C(=O)N[C@@H](CC(=O)O)C(=O)N[C@@H](CC(=O)O)C(=O)N[C@@H](Cc1ccc(O)cc1)C(=O)N[C@@H](CCCN=C(N)N)C(=O)O [KNVNSIVKIQAFFRARKAQDDYR]

MIC [4]: 1.71 µM (≈ 4.5 µg/mL) | MIC [5]: 1.71 µM (≈ 4.5 µg/mL) | MIC [6]: ≥ 95 µM
Structure (SMILES): CC[C@H](C)[C@H](NC(=O)[C@@H](NC(=O)[C@H](Cc1ccccc1)NC(=O)CNC(=O)[C@@H](NC(=O)[C@H](CC(N)=O)NC(=O)[C@H](C)N)C(C)C)C(C)C)C(=O)N[C@@H](CCC(N)=O)C(=O)N[C@@H](CC(C)C)C(=O)N[C@@H](CCC(N)=O)C(=O)N[C@@H](C)C(=O)N[C@@H](CCCN=C(N)N)C(=O)N[C@@H](CC(C)C)C(=O)N[C@@H](CCCN=C(N)N)C(=O)NCC(=O)N[C@@H](Cc1ccccc1)C(=O)N[C@@H](CC(C)C)C(=O)N[C@H](C(=O)N[C@@H](CCCN=C(N)N)C(=O)N[C@@H](CCC(N)=O)C(=O)N[C@@H](CCCCN)C(=O)N[C@@H](Cc1ccccc1)C(=O)N[C@@H](C)C(=O)O)C(C)C [ANVGFVIQLQARLRGFLVRQKFA]

MIC (Escherichia coli BL21): 8 µM (≈ 24.5 µg/mL) | MIC [9]: 1 µM (≈ 3.06 µg/mL) | MIC [10]: 8 µM (≈ 24.5 µg/mL) | MIC [11]: 10 µM (≈ 30.6 µg/mL) | MIC (Pseudomonas syringae): 8 µM (≈ 24.5 µg/mL)
Structure (SMILES): CC[C@H](C)[C@H](NC(=O)[C@H](CCCCN)NC(=O)[C@H](CC(N)=O)NC(=O)[C@H](CCCCN)NC(=O)[C@H](CC(C)C)NC(=O)[C@H](Cc1ccc(O)cc1)NC(=O)[C@H](CCC(N)=O)NC(=O)[C@H](CCCN=C(N)N)NC(=O)[C@@H](NC(=O)[C@@H](NC(=O)[C@H](CCCCN)NC(=O)[C@H](CCCCN)NC(=O)[C@H](Cc1c[nH]c2ccccc12)NC(=O)[C@H](C)N)[C@@H](C)O)[C@@H](C)CC)C(=O)N[C@@H](CCCCN)C(=O)N[C@@H](CCCCN)C(=O)N[C@@H](CCCCN)C(=O)NCC(=O)N[C@@H](CCCN=C(N)N)C(=O)N[C@@H](CCCCN)C(=O)N[C@@H](C)C(=O)N[C@H](C(=O)N[C@H](C(=O)N[C@@H](C)C(=O)N[C@@H](Cc1c[nH]c2ccccc12)C(=O)O)[C@@H](C)CC)C(C)C [AWKKTIRQYLKNKIKKKGRKAVIAW]

MIC [12]: 6 µM (≈ 9.84 µg/mL) | MIC [13]: 2 µM (≈ 3.28 µg/mL) | MIC [14]: 6.25 µM (≈ 10.3 µg/mL) | MIC [4]: 3.8 µM (≈ 6.23 µg/mL) | MIC [15]: 6.8 µM (≈ 11.2 µg/mL) | MIC [16]: 7.6 µM (≈ 12.5 µg/mL) | MIC [17]: 2 µM (≈ 3.28 µg/mL) | MIC [18]: 7.6 µM (≈ 12.5 µg/mL) | MIC [5]: 3.8 µM and 7.6 µM | MIC [19]: 2 µM (≈ 3.28 µg/mL) | MIC [20]: 6 µM (≈ 9.84 µg/mL) | MIC (Cryptococcus neoformans): 3 µM (≈ 4.92 µg/mL) | MIC [21]: 2 µM (≈ 3.28 µg/mL) | MIC [22]: 2 µM (≈ 3.28 µg/mL)
Structure (SMILES): CC[C@H](C)[C@H](NC(=O)[C@H](CCCN=C(N)N)NC(=O)CNC(=O)[C@H](CC(C)C)NC(=O)[C@H](Cc1ccccc1)NC(=O)[C@H](CCCCN)NC(=O)[C@H](CO)NC(=O)[C@H](Cc1ccccc1)NC(=O)[C@H](Cc1c[nH]c2ccccc12)NC(=O)[C@H](CCCCN)NC(=O)[C@@H](NC(=O)[C@@H](N)Cc1ccccc1)C(C)C)C(=O)N[C@@H](CC(C)C)C(N)=O [FVKWFSKFLGRIL]
